Test results from patent publication US20220023269A1, “Methods Of Treating Diabetes In Severe Insulin-Resistant Diabetic Subjects” (Balticgruppen Bio AB, priority 2018, published 2022).

Assays:
[1] = test system: T2D patients on Metformin; experiment: Phase IIa clinical trial (TELLUS), 28 days; assay type: in vivo, human; details: for T2*-grad / Δ-T2*: group-averaged curve fitting
Procedure: An exploratory proof-of-concept randomised, parallel-group, double-blinded, placebo-controlled phase IIa 28-day study (TELLUS) of the first-in-class AMPK activator (the test material; 1,000 mg/day) was conducted in 65 T2D patients on Metformin for months, aiming at further exploring safety of test material and the effect of test material on FPG at a single-dose level.
Main inclusion criteria: Male and female patients, 18-80 years of age, with uncomplicated T2D, on stable T2D treatment with Metformin monotherapy for 3 months. HbA1c of ≥6.5% and 9.0%, and not FPG at day 1, was selected as the main inclusion criterion.
Main exclusion criteria: History of myocardial infarction (MI), unstable angina, stroke or transient ischemic attack (TIA). Congestive heart failure defined as New York Heart Association (NYHA) class III-IV. Any clinically significant abnormalities in physical examination, ECG or clinical chemistry results, as judged by the Investigator.
A good-manufacturing practice (GMP) batch of 5 kg test material was manufactured by Anthem BioSciences Pvt.Ltd, Bangalore, Karnataka, India. The suspension is composed of test material 20 mg/ml in 2% methylcellulose in phosphate buffer. A 2% methylcellulose suspension that colour matched the active product was used as placebo. The test material and placebo suspensions were manufactured, packaged and labelled by Recipharm Pharmaceutical Development AB, Solna, Sweden.
Sixty-five (65) patients were randomised (1:1) to treatment with either the material or placebo. A screening visit (Visit 1) was performed within 3 weeks before randomisation and the start of IMP administration. Patients were randomised on Day 1 (Visit 2) and allocated to 28 days' treatment with either test material or placebo (1:1). Study visits to the clinic were performed 7, 14, 21, 28, 29 and 40 days (Visits 3 to 8) following randomisation and start of treatment. The patients were confined to the research clinic from the evening before Day 1 and Day 28 (Day −1 and Day 27, respectively) to ensure fasting conditions before samples for analyses of FPG were collected. Magnetic Resonance Imaging (MRI) scans after screening but before day 1 and after end of treatment were performed at the University Hospital in Uppsala, Sweden, according to standardised methods. Antaros Medical in Uppsala performed the data analysis. A clinical read of the acquired scans was performed by a radiologist at Antaros Medical. If clinically significant findings were noted by the radiologist, the Investigator was notified of the finding. The Investigator was to evaluate and handle the finding as per standard medical/clinical judgment.
Any findings were reported as either baseline events or adverse events, if they started, or worsened after administration of the first dose of IMP. The method used for assessing microvascular function in the calf muscle, (a proxy for oxygenation), include a dynamic MRI investigation of T2* determination before during and after reactive hyperemia (Reference 4). Sixty five (65) patients were randomised, 32 patients in the placebo group and 33 in the test material group, and 59 patients completed the study (28 and 31 in the two groups, respectively). HbA1c of 6.5% and 9.0%, and not FPG at day 1, was used as the inclusion criterion since MRI examinations had to be performed after screen but before day 1.

AMPK = experiment: SAMS peptide AMPK activity assay; assay type: biochemical; details: 2.5, 5 or 10 μM
Procedure: 50 ng AMPK (Upstate #14-305) was mixed in various combination with 2.5, 5 or 10 μM test material or 20 μM AMP (Sigma #A2002) in buffer (40 mM Hepes pH7.45, 0.5 mM DTT, 2 mM MgCl2, 0.1% DMSO). In all settings 10 μg SAMS and 0.03 μCi/μl ^32P ATP (Perkin Elmer #NEG502Z500UC) were added. Total reaction volume was 25 μl, all components mixed on ice and the reaction carried out at 37° C., 15 minutes, before terminated with 5 μl phosphoric acid, and placed back on ice. 25 μl reaction were dried in on Whatman P81 filters, 50° C., 2 minutes, washed 3 times in 250 ml 1% phosphoric acid, 2 minutes, before added to 4 ml liquid scintillation cocktail (Perkin Elmer #1200-437) and counted, 1 minute, in a Wallac 1414 beta counter. The radioactivity correlates to enzyme activity.

[2] = test system: primary human hepatocytes; experiment: [1,2-14C] acetate incorporation into total lipids; assay type: cell-based; details: 0.625, 1.25, 2.5 or 5 μM
Procedure: Primary human hepatocytes (65,000-130,000 cells/well in 24-well dishes) were treated with vehicle control, 0.625, 1.25, 2.5 or 5 μM test material in serum free Williams' medium E, 2 hours, before addition of 0.25 μCi [1,2-^14C]-acetate/well for an additional 4 hours. 200 μl 0.5% trypsin was used to detach the cells before addition of 800 μl chloroform/methanol (2:1) and 500 μl 4 mM MgCl2. The samples were vortexed and spun at 14,000 rpm, 2 minutes before discarding the aqueous layer. The procedure was repeated twice, first with 700 μl chloroform/methanol (2:1) and 500 μl 4 mM MgCl2 and then 400 μl chloroform/methanol (2:1) and 500 μl 4 mM MgCl2. The organic phase was transferred into a scintillation vial and evaporated to dryness by a stream of nitrogen. The residue was dissolved in 3 ml liquid scintillation cocktail (Optiphase HiSafe 3, Perkin Elmer #1200.437) and 14 C determined for 1 minute in a Wallac 1414 beta counter (Perkin Elmer). Before lipid extraction, 10 μl samples were used to determine protein concentration. 14 C-values were normalised to cellular protein concentration.

[3] = subjects with long TTP at baseline

plasma t1/2 ([1]; T2D patients): long
time to plasma steady-state concentration ([1]; T2D patients): ≥ 14 days
SMILES: O=C(Nc1nc(=O)n(Cc2ccc(Cl)cc2)s1)c1ccc(Cl)cc1 [test material, 4-chloro-N-[2-[(4-chlorophenyl)methyl]-3-oxo-1,2,4-thiadiazol-5-yl]benzamide]
mean absolute reduction in diastolic blood pressure, day 28 vs day 1 ([1]; 1,000 mg/day): −3.8 mmHg
mean absolute reduction in systolic blood pressure, day 28 vs day 1 ([1]; 1,000 mg/day): −5.8 mmHg
tolerability ([1]; 1,000 mg/day, 28 days): well tolerated
HOMA-IR at day 28 compared with day 1 ([1]; 1,000 mg/day, Wilcoxon test within group): statistically significant both absolute (P=0.0097) and relative (P=0.017) reduction
change in mean heart rate at day 28 compared with baseline ([1]; 1,000 mg/day, not significant): −1.6 bpm
mean absolute reduction in FPG at day 28 compared with day 1 ([1]; 1,000 mg/day, post hoc, FPG >7 to <13.3 mmol/l at day 1): -0.60 mM
T2*-grad ([1]; MR1 (screening/baseline)): 0.528 min⁻¹
Δ-T2* ([1]; MR1 (screening/baseline)): 0.072
T2*-grad ([1]; MR2 (day 27-29)): 0.665 min⁻¹
Δ-T2* ([1]; MR2 (day 27-29)): 0.081
T2*-gradient at day 28 compared with baseline ([1]; individual curve fitting, Wilcoxon within group): significant relative increase
Δ−T2* (hyperemic perfusion) at day 28 compared with baseline ([1]; individual curve fitting, vs placebo, 2-way ANOVA): statistically significant increase
time-to-peak (TTP), MRI1 vs MRI2 [1, 3]: significant shortening of TTP
Δ−T2*, MRI1 vs MRI2 [1, 3]: increase
allosteric activation of AMPK (AMPK): did not allosterically activate AMPK
lipid synthesis [2]: dose-dependently suppressed lipid synthesis
